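1) Cells in 96-well plates. 2) Compound, 48 h, 5 concentrations. 3) Linear interpolation between surrounding doses. 4) Unreached endpoint = highest concentration. GI50 marks 50% less growth. The concentration for full growth arrest is given as TGI.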

Among the test systems are HT29 colon; HCC-2998 colon; RPMI-8226 leukemia; OVCAR-3 ovarian; SK-MEL-28 melanoma; HOP-62 NSCLC; DU-145 prostate; PC-3 prostate; T-47D breast; MDA-MB-435.
Assay in all cases: inhibition of tumour cell growth, NCI panel, 48 h

As for `Cc1cc2c(c(C(N)=O)c1C)-c1cccc(F)c1C2=O`, the TGI with HT29 colon, in the test with HCC-2998 colon, in the test on RPMI-8226 leukemia, with OVCAR-3 ovarian, in the test with SK-MEL-28 melanoma and in the test on HOP-62 NSCLC was > 100 µM in each case.

`C/C(=C\c1ccn(-c2ccccc2N)n1)[C@@H]1C[C@@H]2O[C@]2(C)CCC[C@H](C)[C@H](O)[C@@H](C)C(=O)C(C)(C)[C@@H](O)CC(=O)O1`: the GI50 was 0.0206 µM in the test on HT29 colon; 0.0564 µM with DU-145 prostate; 0.0467 µM in the test with HCC-2998 colon; 0.0371 µM in the test on PC-3 prostate; 0.0188 µM with RPMI-8226 leukemia; 0.0177 µM in the test with OVCAR-3 ovarian. The GI50 in the test with SK-MEL-28 melanoma is 1.07 µM; in the test on T-47D breast it was 0.0692 µM; with HOP-62 NSCLC, 0.112 µM. Further, the TGI was > 50 µM in the test on HT29 colon; 0.402 µM with DU-145 prostate; > 18.3 µM with HCC-2998 colon; > 50 µM in the test with PC-3 prostate; > 24.1 µM in the test with RPMI-8226 leukemia; 0.457 µM in the test with OVCAR-3 ovarian. The TGI in the test with SK-MEL-28 melanoma, in the test with T-47D breast and in the test with HOP-62 NSCLC was > 50 µM each time.

As for `C=CO/N=[N+](\[O-])N(CC)CC`, the TGI in the test with HT29 colon, in the test with MDA-MB-435, in the test with DU-145 prostate, with HCC-2998 colon, in the test on RPMI-8226 leukemia and in the test with OVCAR-3 ovarian was > 100 µM throughout. In addition, the TGI in the test with SK-MEL-28 melanoma, in the test with T-47D breast and in the test with HOP-62 NSCLC was > 100 µM in each case.

Consider `CCOC(=O)NC(=O)c1cn(CCN2CCN(C(=O)CNC(=O)CNC(=O)Cn3cc(C(=O)NC(=O)OCC)c(=O)[nH]c3=O)CC2)c(=O)[nH]c1=O`, for which the TGI with HT29 colon, in the test with HCC-2998 colon, in the test with OVCAR-3 ovarian, with SK-MEL-28 melanoma and in the test on HOP-62 NSCLC was > 100 µM throughout.

As to `COc1cc(-c2nc3ccccc3s2)ccc1OCCCCOc1cc2c(cc1OC)C(=O)N1CCC[C@H]1C=N2`, the GI50 in the test on HT29 colon is 0.724 µM; in the test with DU-145 prostate, 0.832 µM; with HCC-2998 colon, 1.1 µM; in the test with PC-3 prostate, 0.785 µM; in the test on RPMI-8226 leukemia, 0.328 µM; in the test on OVCAR-3 ovarian it was 0.728 µM. For the same compound, the GI50 with SK-MEL-28 melanoma was 1.99 µM; in the test on T-47D breast, 0.407 µM; with HOP-62 NSCLC, 1.56 µM. For the same compound, the TGI in the test with HT29 colon turned out to be 7.14 µM; with DU-145 prostate, 6.06 µM; in the test on HCC-2998 colon it was 2.69 µM; in the test with PC-3 prostate, 2.55 µM; in the test on RPMI-8226 leukemia it was 1.44 µM; with OVCAR-3 ovarian, 4.78 µM. For the same compound, the TGI in the test on SK-MEL-28 melanoma turned out to be 4.51 µM; with T-47D breast, 2.03 µM; in the test on HOP-62 NSCLC it was 3.37 µM.

Take `CC(C)N(C(=O)c1cccc(C(=O)N(C(C)C)C(C)C)c1)C(C)C`: the TGI was > 100 µM in the test on HT29 colon; > 100 µM in the test with HCC-2998 colon; 67.1 µM with RPMI-8226 leukemia; > 100 µM in the test on OVCAR-3 ovarian; > 100 µM in the test on SK-MEL-28 melanoma; > 100 µM in the test with HOP-62 NSCLC.

As for `C#CC1(O)CCC2C3CCc4cc(Oc5nc(F)nc(-c6c7ccccc7c7n6CCS7)n5)ccc4C3CC[C@@]21C` (stereo not given in full), the TGI in the test with HT29 colon stood at 73.7 µM; in the test with HCC-2998 colon, 41.7 µM; in the test on RPMI-8226 leukemia, 57.5 µM; with OVCAR-3 ovarian, 32.2 µM; in the test on SK-MEL-28 melanoma it was 57.9 µM; in the test on HOP-62 NSCLC, 36.1 µM.

In the case of `COc1ccccc1N=Nc1c(-c2ccccc2)nn(C(=O)CC(=O)Nc2cccc(C)c2)c1-c1ccccc1`, the TGI with HT29 colon was 33.3 µM; with HCC-2998 colon, > 100 µM; in the test with OVCAR-3 ovarian it was 53.9 µM; in the test on SK-MEL-28 melanoma it was > 100 µM; in the test on HOP-62 NSCLC, > 100 µM.

As to `COC(=O)CCC(NC(=S)N/N=C(\C)c1ccc[nH]1)C(=O)OC` (stereo not given), the TGI with HT29 colon, in the test with HCC-2998 colon, with OVCAR-3 ovarian, in the test with SK-MEL-28 melanoma and in the test with HOP-62 NSCLC was > 100 µM throughout.

For `CC(C)/C=C1\CCC(CN2CCOCC2)C1=O` (stereo not given), the TGI was 15.4 µM with HT29 colon; 36.5 µM in the test on HCC-2998 colon; 4.47 µM in the test on RPMI-8226 leukemia; 32.7 µM in the test with OVCAR-3 ovarian; 32.2 µM in the test on SK-MEL-28 melanoma; > 100 µM with HOP-62 NSCLC.

`ClC(Cl)=C(Cl)C1(Cl)CC1COCc1ccccc1` (stereo not given): the TGI was 86.3 µM with HT29 colon; 81.2 µM with HCC-2998 colon; 44.2 µM with RPMI-8226 leukemia; 68.2 µM in the test on OVCAR-3 ovarian; > 100 µM in the test on SK-MEL-28 melanoma; 79.3 µM in the test with HOP-62 NSCLC.

`C=CCn1c(=S)sc2c(C(=O)OCC)c3c(C)cc(C)cn3c2c1=O`: the TGI in the test on HT29 colon, with HCC-2998 colon, with RPMI-8226 leukemia, in the test with OVCAR-3 ovarian, in the test on SK-MEL-28 melanoma and in the test on HOP-62 NSCLC was > 100 µM in each case.

For `O=c1cccccc1[O-].O=c1cccccc1[O-].O=c1cccccc1[O-].[Eu+3]`, the TGI in the test on HT29 colon was > 100 µM; with HCC-2998 colon it was > 100 µM; with RPMI-8226 leukemia it was > 100 µM; with OVCAR-3 ovarian, 48.1 µM; in the test with SK-MEL-28 melanoma, > 100 µM; in the test on HOP-62 NSCLC it was 90.2 µM. Also, in the test on HOP-62 NSCLC, the GI50 was 24.9 µM.

Take `Cc1c(C(=O)C/C(=N/NC(=O)c2ccccc2)C(=O)Nc2ccc(Cl)cc2)[n+](=O)c2ccccc2n1[O-]`: the TGI in the test with HT29 colon, with RPMI-8226 leukemia, with OVCAR-3 ovarian, with SK-MEL-28 melanoma and in the test with HOP-62 NSCLC was > 100 µM throughout.

Turning to `CCC[CH2][Sn]([CH2]CCC)([O]C(=O)c1cc(OC)c(OC)cc1OC)[O][Sn]([CH2]CCC)([CH2]CCC)[O]C(=O)c1cc(OC)c(OC)cc1OC`, the GI50 with HT29 colon is 1.22 µM; in the test with HCC-2998 colon, 1.1 µM; with RPMI-8226 leukemia, 0.236 µM; with OVCAR-3 ovarian, 0.798 µM; in the test on SK-MEL-28 melanoma it was 0.297 µM; with HOP-62 NSCLC it was 2.11 µM. Besides, the TGI with HT29 colon is 2.82 µM; in the test with HCC-2998 colon, 2.41 µM; in the test on RPMI-8226 leukemia, 0.667 µM; with OVCAR-3 ovarian, 2.07 µM; in the test on SK-MEL-28 melanoma it was 1.02 µM; in the test with HOP-62 NSCLC, 3.67 µM.

These data come from PubChem BioAssay (NCI).
